Results: PubChem BioAssay (NCI)
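Interpolation was linear, between the two tested concentrations surrounding the appropriate level; five concentrations were tested over 48 hours in 96-well plates. GI50 is the concentration that inhibits growth by half. The concentration for full growth arrest is given as TGI.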

How the values were obtained:
Experiment in all cases: growth of human tumour cells (NCI), 48 h
CCRF-CEM leukemia = test system: CCRF-CEM leukemia
NCI-H226 lung = test system: NCI-H226 lung
786-0 renal = test system: 786-0 renal
MDA-MB-435 = test system: MDA-MB-435
SNB-19 CNS = test system: SNB-19 CNS
OVCAR-8 ovarian = test system: OVCAR-8 ovarian
SF-539 CNS = test system: SF-539 CNS
UO-31 renal = test system: UO-31 renal
NCI-H460 lung = test system: NCI-H460 lung
OVCAR-5 ovarian = test system: OVCAR-5 ovarian
LOX IMVI melanoma = test system: LOX IMVI melanoma
SN12C renal = test system: SN12C renal
A549 NSCLC = test system: A549 NSCLC
MALME-3M melanoma = test system: MALME-3M melanoma
NCI-H23 lung = test system: NCI-H23 lung
A498 renal = test system: A498 renal
HCC-2998 colon = test system: HCC-2998 colon
RPMI-8226 leukemia = test system: RPMI-8226 leukemia
UACC-62 melanoma = test system: UACC-62 melanoma
HL-60(TB) leukemia = test system: HL-60(TB) leukemia
EKVX NSCLC = test system: EKVX NSCLC
KM12 colon = test system: KM12 colon
SK-MEL-5 melanoma = test system: SK-MEL-5 melanoma
SF-295 CNS = test system: SF-295 CNS
U251 CNS = test system: U251 CNS
IGROV1 ovarian = test system: IGROV1 ovarian
SF-268 CNS = test system: SF-268 CNS
SK-OV-3 ovarian = test system: SK-OV-3 ovarian
HOP-92 NSCLC = test system: HOP-92 NSCLC
NCI/ADR-RES ovarian = test system: NCI/ADR-RES ovarian
HOP-62 NSCLC = test system: HOP-62 NSCLC
HT29 colon = test system: HT29 colon
K-562 leukemia = test system: K-562 leukemia
ACHN renal = test system: ACHN renal
SW-620 colon = test system: SW-620 colon
MOLT-4 leukemia = test system: MOLT-4 leukemia
OVCAR-4 ovarian = test system: OVCAR-4 ovarian
MDA-MB-231 breast = test system: MDA-MB-231 breast
RXF 393 renal = test system: RXF 393 renal
HCT-116 colon = test system: HCT-116 colon
NCI-H522 lung = test system: NCI-H522 lung
COLO 205 colon = test system: COLO 205 colon
DU-145 prostate = test system: DU-145 prostate
HCT-15 colon = test system: HCT-15 colon
OVCAR-3 ovarian = test system: OVCAR-3 ovarian
UACC-257 melanoma = test system: UACC-257 melanoma
SK-MEL-28 melanoma = test system: SK-MEL-28 melanoma
SK-MEL-2 melanoma = test system: SK-MEL-2 melanoma
CAKI-1 renal = test system: CAKI-1 renal
PC-3 prostate = test system: PC-3 prostate
BT-549 breast = test system: BT-549 breast
MCF7 breast = test system: MCF7 breast
M14 melanoma = test system: M14 melanoma
HS 578T breast = test system: HS 578T breast
TK-10 renal = test system: TK-10 renal

O=C1OCC2=C1C(c1cccc(C(F)(F)F)c1)c1cc3c(cc1N2CCO)CCC3 (stereo not given)
GI50 (CCRF-CEM leukemia): 0.217 µM
TGI (CCRF-CEM leukemia): 45.4 µM
GI50 (NCI-H226 lung): 1 µM
TGI (NCI-H226 lung): 9.43 µM
GI50 (786-0 renal): 0.289 µM
TGI (786-0 renal): 8.13 µM
GI50 (MDA-MB-435): 0.05 µM
TGI (MDA-MB-435): 0.159 µM
GI50 (SNB-19 CNS): 0.215 µM
TGI (SNB-19 CNS): 8.8 µM
GI50 (OVCAR-8 ovarian): 0.203 µM
TGI (OVCAR-8 ovarian): 8.31 µM
GI50 (SF-539 CNS): 0.132 µM
TGI (SF-539 CNS): 0.46 µM
GI50 (UO-31 renal): 0.323 µM
TGI (UO-31 renal): 9.01 µM
GI50 (NCI-H460 lung): 0.167 µM
TGI (NCI-H460 lung): 5.4 µM
GI50 (OVCAR-5 ovarian): 0.265 µM
TGI (OVCAR-5 ovarian): 8.97 µM
GI50 (LOX IMVI melanoma): 0.271 µM
TGI (LOX IMVI melanoma): 6.77 µM
GI50 (SN12C renal): 0.309 µM
TGI (SN12C renal): 7.76 µM
GI50 (A549 NSCLC): 0.201 µM
TGI (A549 NSCLC): 8.04 µM
GI50 (MALME-3M melanoma): 0.714 µM
TGI (MALME-3M melanoma): 10.5 µM
GI50 (NCI-H23 lung): 0.321 µM
TGI (NCI-H23 lung): 14.5 µM
GI50 (A498 renal): 0.0804 µM
TGI (A498 renal): 0.397 µM
GI50 (HCC-2998 colon): 0.177 µM
TGI (HCC-2998 colon): 6.76 µM
GI50 (RPMI-8226 leukemia): 0.239 µM
TGI (RPMI-8226 leukemia): 12.8 µM
GI50 (UACC-62 melanoma): 0.174 µM
TGI (UACC-62 melanoma): 9.15 µM
GI50 (HL-60(TB) leukemia): 0.133 µM
TGI (HL-60(TB) leukemia): 0.427 µM
GI50 (EKVX NSCLC): 0.278 µM
TGI (EKVX NSCLC): 9.52 µM
GI50 (KM12 colon): 0.157 µM
TGI (KM12 colon): 6.37 µM
GI50 (SK-MEL-5 melanoma): 0.156 µM
TGI (SK-MEL-5 melanoma): 2.18 µM
GI50 (SF-295 CNS): 0.138 µM
TGI (SF-295 CNS): 6.21 µM
GI50 (U251 CNS): 0.199 µM
TGI (U251 CNS): 7.92 µM
GI50 (IGROV1 ovarian): 0.312 µM
TGI (IGROV1 ovarian): 8.25 µM
GI50 (SF-268 CNS): 0.266 µM
TGI (SF-268 CNS): 7.15 µM
GI50 (SK-OV-3 ovarian): 0.179 µM
TGI (SK-OV-3 ovarian): 8.64 µM
GI50 (HOP-92 NSCLC): 1.74 µM
TGI (HOP-92 NSCLC): 10.3 µM
GI50 (NCI/ADR-RES ovarian): 0.153 µM
TGI (NCI/ADR-RES ovarian): 6.82 µM
GI50 (HOP-62 NSCLC): 0.178 µM
TGI (HOP-62 NSCLC): 7.74 µM
GI50 (HT29 colon): 0.167 µM
TGI (HT29 colon): 5.27 µM
GI50 (K-562 leukemia): 0.174 µM
TGI (K-562 leukemia): 28.1 µM
GI50 (ACHN renal): 0.441 µM
TGI (ACHN renal): 9.23 µM
GI50 (SW-620 colon): 0.189 µM
TGI (SW-620 colon): 9.16 µM
GI50 (MOLT-4 leukemia): 0.27 µM
TGI (MOLT-4 leukemia): 15.5 µM
GI50 (OVCAR-4 ovarian): 1.05 µM
TGI (OVCAR-4 ovarian): 11.2 µM
GI50 (MDA-MB-231 breast): 0.223 µM
TGI (MDA-MB-231 breast): 6.76 µM
GI50 (RXF 393 renal): 0.145 µM
TGI (RXF 393 renal): 8.38 µM
GI50 (HCT-116 colon): 0.175 µM
TGI (HCT-116 colon): 6.55 µM
GI50 (NCI-H522 lung): 0.137 µM
TGI (NCI-H522 lung): 1.35 µM
GI50 (COLO 205 colon): 0.163 µM
TGI (COLO 205 colon): 1.59 µM
GI50 (DU-145 prostate): 0.195 µM
TGI (DU-145 prostate): 5.66 µM
GI50 (HCT-15 colon): 0.15 µM
TGI (HCT-15 colon): 6.02 µM
GI50 (OVCAR-3 ovarian): 0.161 µM
TGI (OVCAR-3 ovarian): 2.21 µM
GI50 (UACC-257 melanoma): 6.5 µM
TGI (UACC-257 melanoma): 15.2 µM
GI50 (SK-MEL-28 melanoma): 1.41 µM
TGI (SK-MEL-28 melanoma): 12.1 µM
GI50 (SK-MEL-2 melanoma): 0.34 µM
TGI (SK-MEL-2 melanoma): 10.6 µM
GI50 (CAKI-1 renal): 0.174 µM
TGI (CAKI-1 renal): 7.46 µM
GI50 (PC-3 prostate): 0.194 µM
TGI (PC-3 prostate): 7.56 µM
GI50 (BT-549 breast): 0.219 µM
TGI (BT-549 breast): 5.32 µM
GI50 (MCF7 breast): 0.17 µM
TGI (MCF7 breast): 7.65 µM
GI50 (M14 melanoma): 0.159 µM
TGI (M14 melanoma): 6.2 µM
GI50 (HS 578T breast): 0.146 µM
TGI (HS 578T breast): 7.72 µM
GI50 (TK-10 renal): 0.359 µM
TGI (TK-10 renal): 10.9 µM
